# Experimental data published in patent US20230271947A1, “SALT AND CRYSTAL FORM OF KETOHEXOKINASE INHIBITOR AND USE THEREOF” (SHANDONG XUANZHU PHARMA CO., LTD., priority 2020, published 2023).
# Experiment: Stability investigation of crystal forms A, B, C, D and the amorphous form of the compound of formula (1) (related substances by HPLC, moisture, XRD, DSC)
# Assay type: physicochemical
# Settings: for Stability, testing conclusion: under the above conditions (all placement conditions of the study)
# Experimental: (§1) 2.1 Investigation conditions for the crystal form A of the compound of formula (1): • placed at 105° C. for 5 days, opened, and sampled for testing on day 5; • placed at 60° C. for 10 days, opened/closed, and sampled for testing on day 10; • placed at 25° C. and RH 92.5% for 10 days, opened/closed, and sampled for testing on day 10; • placed at 40° C. and RH 75% for one month, opened/closed, and sampled for testing on the last day of the month; and • under illumination, employing a closed way (polyethylene bag + composite film bag) to meet illumination requirements, and sampled for testing.
# Illumination requirements: ICH Q1B Stability Testing: Photostability Testing of New Drug Substances and Products.
# Determination of related substances: determined according to 0512 HPLC in General Principle (Volume IV) of Chinese Pharmacopoeia (2015 Version).
# Moisture determination: determined according to 2 Coulometric Titration in the First Method (Karl Fischer titration) of 0832 Moisture Determination Method in General Principle (Volume IV) of Chinese Pharmacopoeia (2015 Version).
# XRD determination: determined according to the Second Method-Powder X-ray Diffraction Method of 0451 X-ray Diffraction Method in General Principle (Volume IV) of Chinese Pharmacopoeia (2015 Version).
# DSC determination: precisely weighing an appropriate amount of sample in a Standard disc, covering the Standard disc, placing the Standard disc in a sample disc position in a DSC furnace, placing a blank disc of the same type in a reference position, and carrying out the following temperature rise program:
# 1. Equilibrate at 25° C.; and
# as §1, with “B” for “A”
# as §1, with “C” for “A”
# 1. Equilibrate at 25° C.; and 2. Ramp 10° C. to 200° C.
# as §1, with “D” for “A”
# as §1, with “amorphous” for “crystal”, “form” for “form A”, “(1):” for “(1): • placed at 105° C. for 5 days, opened, and sampled for testing on day 5;”
# [1] = 25° C., RH 92.5%, closed, 10 days
# [2] = 25° C., RH 92.5%, opened, 10 days
smiles,measurement,setting,value
"C[C@H]1CCN1c1nc(N2C[C@@H]3[C@@H](CC(=O)O)[C@@H]3C2)c2c(n1)C(F)(F)CC2 [Amorphous form, 2-((1R,5S,6R)-3-(7,7-difluoro-2-((S)-2-methylazetidin-1-yl)-6,7-dihydro-5H-cyclopenta[d]pyrimidin-4-yl)-3-azabicyclo[3.1.0]hexan-6-yl)acetic acid]",Moisture %,0 day,0.70%
same,Total related %,0 day,0.21%
same,Trait,0 day,Off-white power
same,Moisture %,[1],2.8%
same,Total related %,[1],0.35%
same,Trait,[1],Off-white power
same,Moisture %,[2],3.1%
same,Total related %,[2],0.38%
same,Trait,[2],Off-white power
same,Moisture %,"40° C., RH 75%, closed, 1 M",2.1%
same,Total related %,"40° C., RH 75%, closed, 1 M",2.98%
same,Trait,"40° C., RH 75%, closed, 1 M",Off-white power
same,Moisture %,"40° C., RH 75%, opened, 1 M",1.9%
same,Total related %,"40° C., RH 75%, opened, 1 M",2.86%
same,Trait,"40° C., RH 75%, opened, 1 M",Off-white power
same,Moisture %,"60° C., closed, 10 days",0.73%
same,Total related %,"60° C., closed, 10 days",3.92%
same,Trait,"60° C., closed, 10 days",Off-white power
same,Moisture %,"60° C., opened, 10 days",0.56%
same,Total related %,"60° C., opened, 10 days",4.30%
same,Trait,"60° C., opened, 10 days",Off-white power
same,Moisture %,Avoid light for 18 days,1.26%
same,Total related %,Avoid light for 18 days,0.42%
same,Trait,Avoid light for 18 days,Off-white power
same,"Stability, testing conclusion",,"less stable than that of the crystal form A, the crystal form B, the crystal form C and the crystal form D"
"C[C@H]1CCN1c1nc(N2C[C@@H]3[C@@H](CC(=O)O)[C@@H]3C2)c2c(n1)C(F)(F)CC2 [Crystal form A, 2-((1R,5S,6R)-3-(7,7-difluoro-2-((S)-2-methylazetidin-1-yl)-6,7-dihydro-5H-cyclopenta[d]pyrimidin-4-yl)-3-azabicyclo[3.1.0]hexan-6-yl)acetic acid]",DSC,0 day,170.33 °C
same,Moisture %,0 day,0.53%
same,Total related %,0 day,0.18%
same,Trait,0 day,Off-white power
same,DSC,[1],170.42 °C
same,Moisture %,[1],0.54%
same,Total related %,[1],0.24%
same,Trait,[1],Off-white power
same,XRD,[1],Same as day 0
same,DSC,[2],170.23 °C
same,Moisture %,[2],0.54%
same,Total related %,[2],0.24%
same,Trait,[2],Off-white power
same,XRD,[2],Same as day 0
same,DSC,"40° C., RH 75%, closed, 1 M",170.38 °C
same,Moisture %,"40° C., RH 75%, closed, 1 M",0.57%
same,Total related %,"40° C., RH 75%, closed, 1 M",0.22%
same,Trait,"40° C., RH 75%, closed, 1 M",Off-white power
same,XRD,"40° C., RH 75%, closed, 1 M",Same as day 0
same,DSC,"40° C., RH 75%, opened, 1 M",170.32 °C
same,Moisture %,"40° C., RH 75%, opened, 1 M",0.46%
same,Total related %,"40° C., RH 75%, opened, 1 M",0.24%
same,Trait,"40° C., RH 75%, opened, 1 M",Off-white power
same,XRD,"40° C., RH 75%, opened, 1 M",Same as day 0
same,DSC,"60° C., closed, 10 days",170.34 °C
same,Moisture %,"60° C., closed, 10 days",0.61%
same,Total related %,"60° C., closed, 10 days",0.24%
same,Trait,"60° C., closed, 10 days",Off-white power
same,XRD,"60° C., closed, 10 days",Same as day 0
same,DSC,"60° C., opened, 10 days",170.26 °C
same,Moisture %,"60° C., opened, 10 days",0.54%
same,Total related %,"60° C., opened, 10 days",0.25%
same,Trait,"60° C., opened, 10 days",Off-white power
same,XRD,"60° C., opened, 10 days",Same as day 0
same,DSC,"105° C., opened, 5 days",170.65 °C
same,Moisture %,"105° C., opened, 5 days",0.54%
same,Total related %,"105° C., opened, 5 days",0.30%
same,Trait,"105° C., opened, 5 days",Off-white power
same,XRD,"105° C., opened, 5 days",Same as day 0
same,DSC,Avoid light for 18 days,170.20 °C
same,Moisture %,Avoid light for 18 days,0.47%
same,Total related %,Avoid light for 18 days,0.19%
same,Trait,Avoid light for 18 days,Off-white power
same,XRD,Avoid light for 18 days,Same as day 0
same,"Stability, testing conclusion",,relatively stable
"C[C@H]1CCN1c1nc(N2C[C@@H]3[C@@H](CC(=O)O)[C@@H]3C2)c2c(n1)C(F)(F)CC2 [Crystal form B, 2-((1R,5S,6R)-3-(7,7-difluoro-2-((S)-2-methylazetidin-1-yl)-6,7-dihydro-5H-cyclopenta[d]pyrimidin-4-yl)-3-azabicyclo[3.1.0]hexan-6-yl)acetic acid]",DSC,0 day,169.28 °C
same,Moisture %,0 day,0.17%
same,Total related %,0 day,0.08%
same,Trait,0 day,White powder
same,DSC,[1],169.47 °C
same,Moisture %,[1],0.35%
same,Total related %,[1],0.10%
same,Trait,[1],White powder
same,XRD,[1],Same as day 0
same,DSC,[2],169.31 °C
same,Moisture %,[2],0.26%
same,Total related %,[2],0.10%
same,Trait,[2],White powder
same,XRD,[2],Same as day 0
same,DSC,"40° C., RH 75%, closed, 1 M",169.57 °C
same,Moisture %,"40° C., RH 75%, closed, 1 M",0.39%
same,Total related %,"40° C., RH 75%, closed, 1 M",0.08%
same,Trait,"40° C., RH 75%, closed, 1 M",White powder
same,XRD,"40° C., RH 75%, closed, 1 M",Same as day 0
same,DSC,"40° C., RH 75%, opened, 1 M",169.43 °C
same,Moisture %,"40° C., RH 75%, opened, 1 M",0.35%
same,Total related %,"40° C., RH 75%, opened, 1 M",0.09%
same,Trait,"40° C., RH 75%, opened, 1 M",White powder
same,XRD,"40° C., RH 75%, opened, 1 M",Same as day 0
same,DSC,"60° C., closed, 10 days",169.35 °C
same,Moisture %,"60° C., closed, 10 days",0.21%
same,Total related %,"60° C., closed, 10 days",0.11%
same,Trait,"60° C., closed, 10 days",White powder
same,XRD,"60° C., closed, 10 days",Same as day 0
same,DSC,"60° C., opened, 10 days",169.27 °C
same,Moisture %,"60° C., opened, 10 days",0.26%
same,Total related %,"60° C., opened, 10 days",0.13%
same,Trait,"60° C., opened, 10 days",White powder
same,XRD,"60° C., opened, 10 days",Same as day 0
same,DSC,"105° C., opened, 5 days",169.53 °C ° C.
same,Moisture %,"105° C., opened, 5 days",0.28%
same,Total related %,"105° C., opened, 5 days",0.22%
same,Trait,"105° C., opened, 5 days",White powder
same,XRD,"105° C., opened, 5 days",Same as day 0
same,DSC,Avoid light for 18 days,169.15 °C
same,Moisture %,Avoid light for 18 days,0.17%
same,Total related %,Avoid light for 18 days,0.07%
same,Trait,Avoid light for 18 days,White powder
same,XRD,Avoid light for 18 days,Same as day 0
same,"Stability, testing conclusion",,relatively stable
"C[C@H]1CCN1c1nc(N2C[C@@H]3[C@@H](CC(=O)O)[C@@H]3C2)c2c(n1)C(F)(F)CC2 [Crystal form C, 2-((1R,5S,6R)-3-(7,7-difluoro-2-((S)-2-methylazetidin-1-yl)-6,7-dihydro-5H-cyclopenta[d]pyrimidin-4-yl)-3-azabicyclo[3.1.0]hexan-6-yl)acetic acid]",DSC,0 day,172.44 °C
same,Moisture %,0 day,0.24%
same,Total related %,0 day,1.25%
same,Trait,0 day,Off-white power
same,DSC,[1],172.36 °C
same,Moisture %,[1],0.09%
same,Total related %,[1],1.06%
same,Trait,[1],Off-white power
same,XRD,[1],Same as day 0
same,DSC,[2],172.35 °C
same,Moisture %,[2],0.11%
same,Total related %,[2],1.07%
same,Trait,[2],Off-white power
same,XRD,[2],Same as day 0
same,DSC,"40° C., RH 75%, closed, 1 M",172.36 °C
same,Moisture %,"40° C., RH 75%, closed, 1 M",0.19%
same,Total related %,"40° C., RH 75%, closed, 1 M",1.30%
same,Trait,"40° C., RH 75%, closed, 1 M",Off-white power
same,XRD,"40° C., RH 75%, closed, 1 M",Same as day 0
same,DSC,"40° C., RH 75%, opened, 1 M",172.35 °C
same,Moisture %,"40° C., RH 75%, opened, 1 M",0.13%
same,Total related %,"40° C., RH 75%, opened, 1 M",1.31%
same,Trait,"40° C., RH 75%, opened, 1 M",Off-white power
same,XRD,"40° C., RH 75%, opened, 1 M",Same as day 0
same,DSC,"60° C., closed, 10 days",172.21 °C
same,Moisture %,"60° C., closed, 10 days",0.08%
same,Total related %,"60° C., closed, 10 days",2.20%
same,Trait,"60° C., closed, 10 days",Off-white power
same,XRD,"60° C., closed, 10 days",Same as day 0
same,DSC,"60° C., opened, 10 days",172.21 °C
same,Moisture %,"60° C., opened, 10 days",0.08%
same,Total related %,"60° C., opened, 10 days",2.09%
same,Trait,"60° C., opened, 10 days",Off-white power
same,XRD,"60° C., opened, 10 days",Same as day 0
same,"Total related substances, change",105° C. for 5 days and 60° C. for 10 days,slightly increased
same,DSC,"105° C., opened, 5 days",171.85 °C
same,Moisture %,"105° C., opened, 5 days",0.24%
same,Total related %,"105° C., opened, 5 days",1.77%
same,Trait,"105° C., opened, 5 days",Off-white power
same,XRD,"105° C., opened, 5 days",Same as day 0
same,DSC,Avoid light for 18 days,172.42 °C
same,Moisture %,Avoid light for 18 days,0.13%
same,Total related %,Avoid light for 18 days,1.25%
same,Trait,Avoid light for 18 days,Off-white power
same,XRD,Avoid light for 18 days,Same as day 0
same,"Related substances, content, moisture, and XRD stability","opened/closed, 25° C. and RH 92.5% for 10 days, 40° C. and RH 75% for one month",good
